The subject of one experiment is SJSA-1. Description: Cell proliferation (Alamar Blue) assay, SJSA-1 osteosarcoma, with/without ferrostatin. The class given is cell-based, human. The conditions noted are these: Homo sapiens. In a few lines:
(§1)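 Cells seeded at 5000/well, 16-24 h, then exposed 24 h at 37° C to compound, 10-0.0005 μM in 3-fold dilutions, 1% DMSO final. Alamar Blue fluorescence (ex 540/em 590 nm) read after 1.5 h; IC50 from variable-slope sigmoidal fit.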
A general note: Resazurin is reduced to fluorescent resorufin, in cell work by metabolically active cells.

The next experiment relates to 786-O. Description: Cell proliferation (Alamar Blue) assay, 786-O renal cell carcinoma, with/without ferrostatin. It counts as cell-based. The conditions noted are these: Homo sapiens. A digest of the protocol: as §1
The next experiment relates to A549. Put plainly: Cell viability assay, A549 cells. The class given is cell-based. As to conditions: Homo sapiens, A549, Cell Line A549; read-out: IC50. In a few lines:
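Growth of A549 cells was assessed with a cell viability assay. Cells were plated at 1,000-10,000 cells/well in 96-well plates and incubated overnight at 37° C. Nine-point 3-fold DMSO dilutions, starting from 30 μM and run in duplicate, were diluted into media (final DMSO 0.25% or less). After 96 hours, CellTiter Glo luminescence was read, inhibition was calculated against DMSO controls, and IC50 was fitted in XL-fit.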

Another experiment has as its system A431. Put plainly: Cell proliferation (Alamar Blue) assay, A431. The class given is cell-based. The conditions noted are these: Homo sapiens, A-431; Cell Line A431. As to the method: Cells (SJSA-1, 786-O and A431) were seeded (5000 cells/100 μL/well) in 96-well tissue culture plate and incubated at 37° C./5% CO2 for 16-24 hours. The cells were then treated with compounds (25 μL of 5×). The compound concentrations were 10-0.0005 μM prepared in 3-fold serial dilutions with final DMSO concentration of 1%. The plates were then incubated for 24 h at 37° C./5% CO2 in a moist environment. Then Alamar Blue™ reagent (final concentration 1×-12.5 μL) was added to each well and incubated for 1.5 hours at 37° C./5% CO2. The plates were read on fluorescence reader at 540 nm excitation and 590 nm emission wavelengths. The IC50 values were subsequently determined using a sigmoidal dose-response curve (variable slope) in GraphPad Prism® 5 software.
The cell proliferation assays for the compounds shown Table 25 was performed according to the protocols described herein, including Examples 4 and 6.

Setting [1] is: SJSA-1, Cell Line SJSA-1, read-out: IC50.
[2] abbreviates: 786-0, Cell Line 786-O, read-out: IC50.
Where [3] appears, read: SJSA-1, 24 h, Alamar Blue, 24 h, 2 μM ferrostatin, read-out: SJSA-1 (IC50, μM) 2 μM Ferrostatin.
The mark [4] stands for this setting: SJSA-1, 24 h, Alamar Blue, 24 h, without ferrostatin, read-out: SJSA-1 (IC50, μM) Without Ferrostatin.
Setting [5] is: 786-0, 24 h, Alamar Blue, 24 h, 2 μM ferrostatin, read-out: 786-O (IC50, μM) 2 μM Ferrostatin.
[6] abbreviates: 786-0, 24 h, Alamar Blue, 24 h, without ferrostatin, read-out: 786-O (IC50, μM) Without Ferrostatin.

Like-named read-outs stand apart in the source and are kept apart here.

With `Cc1cc(N2CCOCC2)ccc1[C@H]1c2[nH]c3ccccc3c2C[C@H](C)N1C(=O)CCl` [Compound 234, 2-chloro-1-((1S,3S)-3-methyl-1-(2-methyl-4-morpholinophenyl)-1,3,4,9-tetrahydro-2H-pyrido[3,4-b]indol-2-yl)ethan-1-one], the half-maximal inhibitory concentration (IC50) in the experiment with SJSA-1 (setting [1]) worked out at 3.92 µM; in the experiment on 786-O (setting [2]), 4.17 µM; with A549 it was 3250 nM; in the experiment on A431, 8000 nM.

Regarding `C#CC(=O)N1[C@@H](CCCC)Cc2c([nH]c3ccc(F)cc23)[C@@H]1c1ccc(S(=O)(=O)NC2CCC2)cc1` [Compound 143, 4-((1S,3S)-3-butyl-6-fluoro-2-propioloyl-2,3,4,9-tetrahydro-1H-pyrido[3,4-b]indol-1-yl)-N-cyclobutylbenzenesulfonamide], the results for the IC50 in the experiment on SJSA-1 (setting [1]), in the experiment on 786-O (setting [2]) and in the experiment on A431 were 0.009 µM, 0.009 µM and 2700 nM, respectively.

On to `C[C@H]1Cc2c([nH]c3ccc(Cl)cc23)[C@H](c2ccc(S(=O)(=O)NC3CC3)cc2F)N1C(=O)CCl` [Compound 172, 4-((1S,3S)-6-chloro-2-(2-chloroacetyl)-3-methyl-2,3,4,9-tetrahydro-1H-pyrido[3,4-b]indol-1-yl)-N-cyclopropyl-3-fluorobenzenesulfonamide], for which the IC50 with SJSA-1 (setting [3]) amounted to 4.1 µM; with SJSA-1 (setting [4]) it was 0.023 µM; in the experiment on SJSA-1 (setting [1]), 0.023 µM; with 786-O (setting [5]), 6.76 µM; with 786-O (setting [6]), 0.023 µM; in the experiment on 786-O (setting [2]) it was 0.023 µM. Moreover, it took 2110 nM to reach half-maximal inhibition in the experiment on A431 (IC50).

Turning to `COc1ccc2[nH]c3c(c2c1)C[C@H](C)N(C(=O)CCl)[C@H]3c1ccc(S(=O)(=O)NC2CC2)cc1F` [Compound 173, 4-((3S)-2-(2-chloroacetyl)-6-methoxy-3-methyl-2,3,4,9-tetrahydro-1H-pyrido[3,4-b]indol-1-yl)-N-cyclopropyl-3-fluorobenzenesulfonamide], the IC50 was 3.98 µM in the experiment on SJSA-1 (setting [3]); 0.034 µM in the experiment on SJSA-1 (setting [4]); 0.034 µM with SJSA-1 (setting [1]); 3.95 µM in the experiment with 786-O (setting [5]); 0.023 µM in the experiment with 786-O (setting [6]); 0.023 µM in the experiment with 786-O (setting [2]). For the same molecule, in the experiment with A431, inhibition was half-maximal at 3670 nM (IC50).

With `CCCC[C@H]1Cc2c([nH]c3ccc(F)cc23)[C@H](c2ccc(S(=O)(=O)NC3CCC3)cc2)N1C(=O)CCl` [Compound 145, 4-((1S,3S)-3-butyl-2-(2-chloroacetyl)-6-fluoro-2,3,4,9-tetrahydro-1H-pyrido[3,4-b]indol-1-yl)-N-cyclobutylbenzenesulfonamide], the IC50 in the experiment with SJSA-1 (setting [1]) was 0.004 µM; in the experiment on 786-O (setting [2]) it was 0.003 µM; with A431 it was 4600 nM.

Consider `C[C@H]1Cc2c([nH]c3ccccc23)[C@@H](c2ccc(N3CCOCC3)cc2F)N1C(=O)CCl` [Compound 129], for which the IC50 in the experiment with SJSA-1 (setting [1]) was 4.4 µM; in the experiment on 786-O (setting [2]) it was 4.2 µM; with A431, 4400 nM.

`C[C@H]1Cc2c([nH]c3ccccc23)[C@H](c2ccc(N3CC4(COC4)C3)cc2)N1C(=O)CCl` [Compound 213, 1-((1S,3S)-1-(4-(2-oxa-6-azaspiro[3.3]heptan-6-yl)phenyl)-3-methyl-1,3,4,9-tetrahydro-2H-pyrido[3,4-b]indol-2-yl)-2-chloroethan-1-one]: the IC50 with SJSA-1 (setting [3]) was 4.79 µM; in the experiment on SJSA-1 (setting [4]) it was 0.066 µM; in the experiment with SJSA-1 (setting [1]), 0.066 µM; with 786-O (setting [5]), 5.62 µM; in the experiment on 786-O (setting [6]) it was 0.066 µM; in the experiment with 786-O (setting [2]) it was 0.066 µM. Besides, in the experiment on A431, the IC50 came out at 1850 nM.

Consider `COC[C@H]1Cc2c([nH]c3ccccc23)[C@H](c2ccc(N3CCOCC3)cc2)N1C(=O)CCl` [Compound 232], for which the IC50 in the experiment with SJSA-1 (setting [1]) was 0.045 µM; in the experiment on 786-O (setting [2]) it was 0.025 µM; in the experiment with A431, more than 10000 nM.

As for `C[C@H]1Cc2c([nH]c3ccccc23)[C@H](c2ccc(S(=O)(=O)N(C)C3CC3)cc2F)N1C(=O)CCl` [Compound 170], the IC50 in the experiment on SJSA-1 (setting [3]) turned out to be 9.11 µM; with SJSA-1 (setting [4]), 0.062 µM; in the experiment with SJSA-1 (setting [1]), 0.062 µM; with 786-O (setting [5]) it was 8.09 µM; in the experiment with 786-O (setting [6]), 0.058 µM; in the experiment with 786-O (setting [2]), 0.058 µM. For the same molecule, in the experiment on A431, the IC50 is 4190 nM.

In the case of `Cc1cc(N2CCOCC2)ccc1[C@@H]1c2[nH]c3ccccc3c2C[C@H](C)N1C(=O)CCl` [Compound 128, 2-chloro-1-((1R,3S)-3-methyl-1-(2-methyl-4-morpholinophenyl)-1,3,4,9-tetrahydro-2H-pyrido[3,4-b]indol-2-yl)ethan-1-one], the IC50 in the experiment with SJSA-1 (setting [1]) was 0.184 µM; in the experiment on 786-O (setting [2]), 0.188 µM; in the experiment with A431, more than 10000 nM.

For the molecule `C#CC(=O)N1[C@@H](COC)Cc2c([nH]c3ccccc23)[C@@H]1c1ccc(S(=O)(=O)NC2CC2)cc1F` [Compound 144], the IC50 with SJSA-1 (setting [1]) was 0.025 µM; with 786-O (setting [2]) it was 0.007 µM; in the experiment with A431, 3500 nM.

With `C[C@H]1Cc2c([nH]c3ccccc23)[C@H](c2ccc(N3CCOCC3)cc2F)N1C(=O)CCl` [Compound 233], the IC50 amounted to 0.0443 µM in the experiment with SJSA-1 (setting [1]), 0.0337 µM in the experiment on 786-O (setting [2]), 1970 nM with A549 and 4800 nM in the experiment with A431.

`C[C@H]1Cc2c([nH]c3ccccc23)[C@H](c2ccc(C(=O)NC3CCC3)nc2)N1C(=O)CCl` [Compound 214, 5-((1S,3S)-2-(2-chloroacetyl)-3-methyl-2,3,4,9-tetrahydro-1H-pyrido[3,4-b]indol-1-yl)-N-cyclobutylpicolinamide]: the IC50 with SJSA-1 (setting [3]) was 4.15 µM; with SJSA-1 (setting [4]), 0.03 µM; in the experiment on SJSA-1 (setting [1]), 0.03 µM; in the experiment on 786-O (setting [5]), 4.72 µM; in the experiment with 786-O (setting [6]) it was 0.019 µM; with 786-O (setting [2]), 0.019 µM. The IC50 with A431 turned out to be 1580 nM.

Turning to `C[C@H]1Cc2c([nH]c3ccccc23)[C@H](c2ccc(C(=O)Nc3ccccn3)cc2)N1C(=O)CCl` (single isomer, unassigned) [Compound 219], the IC50 in the experiment on SJSA-1 (setting [1]) stood at 0.036 µM; in the experiment on 786-O (setting [2]), 0.051 µM; with A431, 1900 nM.

For the molecule `C[C@H]1Cc2c([nH]c3ccccc23)[C@@H](c2ccc(N3CCOCC3)nc2)N1C(=O)CCl` [Compound 157], the 50% inhibitory concentration (IC50) in the experiment on SJSA-1 (setting [1]) was more than 10 µM; in the experiment with 786-O (setting [2]), more than 10 µM; in the experiment on A431, 2000 nM.

Regarding `C#CC(=O)N1[C@@H](c2ccc(F)cc2)c2[nH]c3ccccc3c2C[C@@H]1C(=O)OC` [Compound 146, methyl (1S,3R)-1-(4-fluorophenyl)-2-propioloyl-2,3,4,9-tetrahydro-1H-pyrido[3,4-b]indole-3-carboxylate], the results for the IC50 in the experiment with SJSA-1 (setting [1]), in the experiment on 786-O (setting [2]) and in the experiment on A431 were 0.03 µM, 0.023 µM and 2400 nM, respectively.

For the molecule `C[C@H]1Cc2c([nH]c3ccc(F)cc23)[C@H](c2ccc(S(=O)(=O)NC3CC3)cc2F)N1C(=O)CCl` (stereo in doubt) [Compound 164, 4-((1S,3S)-2-(2-chloroacetyl)-6-fluoro-3-methyl-2,3,4,9-tetrahydro-1H-pyrido[3,4-b]indol-1-yl)-N-cyclopropyl-3-fluorobenzenesulfonamide], the 50% inhibitory concentration (IC50) with SJSA-1 (setting [3]) turned out to be 7.06 µM; with SJSA-1 (setting [4]), 0.013 µM; in the experiment on SJSA-1 (setting [1]), 0.013 µM; in the experiment on 786-O (setting [5]), 6.34 µM; in the experiment with 786-O (setting [6]), 0.023 µM; in the experiment with 786-O (setting [2]), 0.023 µM. In the experiment on A431, half-maximal inhibition (IC50) was put at 9940 nM.

What is called IC50 is the concentration needed to halve the response being measured.

The values are drawn from US11098040B2, “Compounds and methods of use” (Ferro Therapeutics, Inc., priority 2018, dated 2021).
